Results on 58 compounds are retold here after ChEMBL document CHEMBL1133599, “Inhibitors of tripeptidyl peptidase II. 2. Generation of the first novel lead inhibitor of cholecystokinin-8-inactivating peptidase: a strategy for the design of peptidase inhibitors” (J Med Chem, 2000).

pKi: −log10 of the molar value. Where a SMILES comes first, the peptide text is derived from it. [ ]: non-standard residue; d: D form. The star is where a group is joined. 2Nal = N[C@@H](Cc1ccc2ccccc2c1)C(=O)O; hPhe = N[C@@H](CCc1ccccc1)C(=O)O; Cha = N[C@@H](CC1CCCCC1)C(=O)O; Phg = N[C@H](C(=O)O)c1ccccc1; Nle = CCCC[C@H](N)C(=O)O; Nva = CCC[CH](N)C(=O)O; Cbz = O=C(OCc1ccccc1)*; Bn = c1ccc(C*)cc1; NHBu = CCCCN*

For this experiment, the target named is Tripeptidyl-peptidase 2 (Rattus norvegicus, UniProt Q64560). The experiment can be described thus: Inhibition potency against Cholecystokinin-8-Inactivating Peptidase (Serine Peptidase).
Chain of Tripeptidyl-peptidase 2 (Q64560 whole entry): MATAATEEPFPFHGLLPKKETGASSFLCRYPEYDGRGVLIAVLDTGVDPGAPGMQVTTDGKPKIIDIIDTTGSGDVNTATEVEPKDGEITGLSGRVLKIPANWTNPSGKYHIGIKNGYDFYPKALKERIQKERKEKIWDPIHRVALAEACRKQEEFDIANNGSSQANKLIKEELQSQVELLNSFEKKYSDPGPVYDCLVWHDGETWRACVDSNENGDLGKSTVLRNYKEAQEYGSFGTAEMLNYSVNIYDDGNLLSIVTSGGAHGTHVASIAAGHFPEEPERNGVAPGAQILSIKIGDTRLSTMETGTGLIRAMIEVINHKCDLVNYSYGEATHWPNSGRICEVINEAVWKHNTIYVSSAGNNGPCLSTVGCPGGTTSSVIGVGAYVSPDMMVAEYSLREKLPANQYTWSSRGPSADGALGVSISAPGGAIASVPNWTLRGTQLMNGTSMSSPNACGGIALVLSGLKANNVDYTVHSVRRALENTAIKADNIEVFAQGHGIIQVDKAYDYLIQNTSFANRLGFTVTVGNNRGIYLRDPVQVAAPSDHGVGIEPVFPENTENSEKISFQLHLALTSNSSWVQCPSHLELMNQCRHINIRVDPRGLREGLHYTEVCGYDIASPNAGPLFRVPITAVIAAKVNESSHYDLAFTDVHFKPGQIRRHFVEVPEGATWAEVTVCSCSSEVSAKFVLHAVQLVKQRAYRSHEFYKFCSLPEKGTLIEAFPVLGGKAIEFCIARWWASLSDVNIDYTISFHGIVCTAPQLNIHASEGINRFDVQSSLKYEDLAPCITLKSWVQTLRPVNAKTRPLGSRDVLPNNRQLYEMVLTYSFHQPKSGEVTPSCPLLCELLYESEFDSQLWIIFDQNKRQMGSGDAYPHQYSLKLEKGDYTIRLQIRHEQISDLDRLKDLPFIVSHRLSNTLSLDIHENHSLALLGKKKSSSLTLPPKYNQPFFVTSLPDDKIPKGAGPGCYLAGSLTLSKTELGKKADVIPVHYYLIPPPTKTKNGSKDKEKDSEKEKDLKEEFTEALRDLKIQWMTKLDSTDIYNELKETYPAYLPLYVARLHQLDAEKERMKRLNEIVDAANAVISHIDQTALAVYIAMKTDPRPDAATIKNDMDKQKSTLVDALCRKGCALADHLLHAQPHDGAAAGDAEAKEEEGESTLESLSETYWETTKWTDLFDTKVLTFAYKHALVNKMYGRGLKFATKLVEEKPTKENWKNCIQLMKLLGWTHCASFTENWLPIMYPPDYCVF
As usually defined, the pKi is the Ki on a negative log10 scale, so that one unit is a factor of ten. Low values mean a large Ki, high ones a small Ki. Turning to `CC(C)[C@H](N)C(=O)NCCc1ccccc1`, the negative logarithm of the Ki (pKi) is 3.94.

Take `CC(C)[C@H](N)C(=O)NC(CO)Cc1ccccc1` (stereo partly drawn): the negative logarithm of the Ki (pKi) is 2.68. The value for `CC(C)[C@H](N)C(=O)NCCCc1ccccc1` was 4.07. The compound `CC(C)[C@H](N)C(=O)NCCCCc1ccccc1` gave a pKi of 4.48. The value for `CCCCOC(=O)C(CCCC)NC(=O)C(NC(=O)OCc1ccccc1)C(C)C` (stereo not drawn) was less than 2.52; that for `CC(C)[C@H](N)C(=O)NCc1ccccc1` was 4.10; that for `C[C@H](N)C(=O)N[C@@H](C)C(=O)N[C@@H](C)C(=O)O` was 4.85. For `CCCCOC(=O)[C@H](Cc1ccccc1)NC(=O)[C@@H](N)C(C)C`, the negative-log Ki (pKi) was 3.64. The value for `CCCC[C@H](NC(=O)[C@@H](N)CCCC)C(=O)NC` was 5.05; that for `CCCCOC(=O)[C@H](CCCC)NC(=O)[C@@H](N)C(C)C` was 3.54. The value for `CCCC[C@H](NC)C(=O)N[C@@H](CCCC)C(=O)NC` was less than 2.52. The value for `CCCCOC(=O)N[C@H](C(=O)N[C@@H](CCCC)C(=O)O)C(C)C` was less than 2.30; that for `CCCC[C@H](NC(=O)[C@@H](N)CCCC)C(=O)O` was 2.84. `CCC[C@H](NC(=O)[C@@H](NCc1ccccc1)C(C)C)C(=O)O` gave a pKi of less than 2.30.

The compound `CSCC[C@@H](NC(=O)[C@@H](N)C(C)C)C(=O)O` showed a negative-log Ki (pKi) of 2.70. The value for `CSCC[C@@H](N)C(=O)N[C@@H](Cc1ccc(O)cc1)C(=O)O` was 2.70; that for `CCCC[C@H](NC)C(=O)N[C@@H](CCCC)C(=O)OC` was less than 2.30. The value for `CCCC[C@H](NC(=O)[C@@H](N)C(C)C)C(=O)NCCCc1ccccc1` was 4.54; that for `CCCC[C@H](NCc1ccccc1)C(=O)N[C@@H](CCCC)C(=O)NC` was less than 2.52. The value for `CC(N)C(=O)NC(C)C(=O)O` (stereo not drawn) was 2.30; that for `C[C@H](N)C(=O)N[C@@H](Cc1ccccc1)C(=O)O` was 2.94; that for `CCC[C@H](NC(=O)[C@@H](NC(C)=O)C(C)C)C(=O)O` (Ac-Val-[Nva]-OH) was less than 3.30. Take `CC(C)C(NC(=O)C(NC(=O)OCc1ccccc1)C(C)C)C(=O)O` (stereo not drawn) (Cbz-Val-Val-OH; configuration not given here): the negative-log Ki (pKi) was less than 2.30.

The compound `CCCC(NC(=O)C(NC(=O)OCc1ccccc1)C(C)C)C(=O)O` (stereo not drawn) (Cbz-Val-[Nva]-OH; configuration not given here) showed a negative-log Ki (pKi) of less than 2.30.

In turn, `C[C@H](N)C(=O)N[C@@H](C)C(=O)N1CCC[C@H]1C(=O)N[C@@H](C)C(=O)O` (H-AAPA-OH) had a negative-log Ki (pKi) of 3.94. The value for `C[C@H](N)C(=O)N1CCC[C@H]1C(=O)N[C@@H](C)C(=O)O` (H-Ala-Pro-Ala-OH) was 5.52; that for `C[C@H](N)C(=O)N1CCC[C@H]1C(=O)O` (H-Ala-Pro-OH) was 2.85.

The compound `CSCC[C@H](NC(=O)[C@H](Cc1ccc(O)cc1)NC(=O)[C@@H](N)CC(=O)O)C(=O)O` (H-Asp-Tyr-Met-OH) showed a pKi of 4.30. The value for `N[C@@H](CC(=O)O)C(=O)N[C@@H](Cc1ccc(O)cc1)C(=O)O` (H-Asp-Tyr-OH) was less than 2.30; that for `NCC(=O)NCC(=O)N[C@@H](Cc1ccccc1)C(=O)O` (H-Gly-Gly-Phe-OH) was 3.96. The value for `NCC(=O)N[C@@H](Cc1ccccc1)C(=O)O` (H-Gly-Phe-OH) was 3.33; that for `CSCC[C@H](NC(=O)[C@H](Cc1c[nH]c2ccccc12)NC(=O)CN)C(=O)O` (H-Gly-Trp-Met-OH) was 4.70. The value for `NCC(=O)N[C@@H](Cc1c[nH]c2ccccc12)C(=O)O` (H-Gly-Trp-OH) was 3.19; that for `CC(C)[C@H](NC(=O)CN)C(=O)N[C@@H](Cc1ccccc1)C(=O)O` (H-Gly-Val-Phe-OH) was 4.54; that for `CC(C)[C@H](N)C(=O)N[C@@H](C)C(=O)O` (H-Val-Ala-OH) was 2.05.

Turning to `CCCCNC(=O)[C@H](Cc1ccccc1)NC(=O)[C@@H](N)C(C)C` (H-Val-Phe-NHBu), the negative-log Ki (pKi) is 4.70.

In turn, `CNC(=O)[C@H](Cc1ccccc1)NC(=O)[C@@H](N)C(C)C` (H-Val-Phe-NHMe) had a negative logarithm of the Ki (pKi) of 4.66.

The compound `COC(=O)[C@H](Cc1ccccc1)NC(=O)[C@@H](N)C(C)C` (H-Val-Phe-OMe) showed a pKi of 3.59. Regarding `CC(C)C(N)C(=O)NC(Cc1ccc(OCc2ccccc2)cc1)C(=O)O` (stereo not drawn) (H-Val-Tyr(Bn)-OH; configuration not given here), the pKi was 3.68. The value for `CNC(=O)[C@H](Cc1ccc(O)cc1)NC(=O)[C@@H](N)C(C)C` (H-Val-Tyr-NHMe) was 4.96.

For `CC(C)[C@H](N)C(=O)N[C@@H](Cc1ccc(O)cc1)C(=O)O` (H-Val-Tyr-OH), the pKi was 3.07. The value for `CNC(=O)[C@@H](NC(=O)[C@@H](N)C(C)C)C(C)C` (H-Val-Val-NHMe) was 4.34; that for `CC(C)[C@H](N)C(=O)N[C@@H](Cc1ccc2ccccc2c1)C(=O)O` (H-Val-[2Nal]-OH) was 4.22; that for `CCCCNC(=O)[C@H](CC1CCCCC1)NC(=O)[C@@H](N)C(C)C` (H-Val-[Cha]-NHBu) was 4.24. For the compound `CC(C)[C@H](N)C(=O)N[C@@H](CC1CCCCC1)C(=O)O` (H-Val-[Cha]-OH), the negative logarithm of the Ki (pKi) is 2.52. The value for `CCCCNC(=O)[C@H](CCCC)NC(=O)[C@@H](N)C(C)C` (H-Val-[Nle]-NHBu) was 4.85; that for `CCCC[C@H](NC(=O)[C@@H](N)C(C)C)C(=O)NC` (H-Val-[Nle]-NHMe) was 4.18; that for `CCCC[C@H](NC(=O)[C@@H](N)C(C)C)C(=O)O` (H-Val-[Nle]-OH) was 3.07. In turn, `CCCCNC(=O)[C@H](CCC)NC(=O)[C@@H](N)C(C)C` (H-Val-[Nva]-NHBu) gave a pKi of 5.52. The value for `CCC[C@H](NC(=O)[C@@H](N)C(C)C)C(=O)NC` (H-Val-[Nva]-NHMe) was 4.55. The value for `CCC[C@H](NC(=O)[C@@H](N)C(C)C)C(=O)O` (H-Val-[Nva]-OH) was 3.36; that for `CNC(=O)[C@@H](NC(=O)[C@@H](N)C(C)C)c1ccccc1` (H-Val-[Phg]-NHMe) was 4.54; that for `CC(C)[C@H](N)C(=O)N[C@H](C(=O)O)c1ccccc1` (H-Val-[Phg]-OH) was 3.22. The value for `CC(C)[C@H](N)C(=O)N[C@@H](CCc1ccccc1)C(=O)O` (H-Val-[hPhe]-OH) was 3.24; that for `CCC[C@H](NC(=O)[C@@H](N)CCC)C(=O)O` (H-[Nva]-[Nva]-OH) was 3.00.

Consider `CSCC[C@@H](N)C(=O)N[C@H](CCSC)C(=O)O` (H-[dM]-[dM]-OH), for which the negative logarithm of the Ki (pKi) is less than 2.30. The value for `CC[C@H](C)[C@H](N)C(=O)N1CCC[C@H]1C(=O)N[C@H](C(=O)O)[C@@H](C)CC` [DIPROTIN A] was 6.00; that for `CC(C)[C@H](N)C(=O)N[C@H](C(=O)O)C(C)C` [VAL-VAL] (H-Val-Val-OH) was 2.78.
